In publication PMC12590467, “Accessory Subunit Regulates Thiyl Radical Formation in Benzylsuccinate Synthase” (Biochemistry, 2025):

Molecular target: T1, BSSαβγ (benzylsuccinate synthase) (Thauera aromatica, UniProt O68395)
T1 construct: gene tutD; BSSαγ mixed 1:2 with BSSβ; (αβγ)2; α 865, β 81, γ 60 residues; resolved α 9-865, β 13-81, γ 5-59; catalytic Cys493; with Benzylsuccinate synthase beta subunit; Benzylsuccinate synthase gamma subunit
Experiment: X-ray crystal structure, […] Å
Format: binding
Details: active site; toluene not added, modelled from glovebox atmosphere; also turned over with fumarate; pH 8.5

T1 sequence (O68395 1-864): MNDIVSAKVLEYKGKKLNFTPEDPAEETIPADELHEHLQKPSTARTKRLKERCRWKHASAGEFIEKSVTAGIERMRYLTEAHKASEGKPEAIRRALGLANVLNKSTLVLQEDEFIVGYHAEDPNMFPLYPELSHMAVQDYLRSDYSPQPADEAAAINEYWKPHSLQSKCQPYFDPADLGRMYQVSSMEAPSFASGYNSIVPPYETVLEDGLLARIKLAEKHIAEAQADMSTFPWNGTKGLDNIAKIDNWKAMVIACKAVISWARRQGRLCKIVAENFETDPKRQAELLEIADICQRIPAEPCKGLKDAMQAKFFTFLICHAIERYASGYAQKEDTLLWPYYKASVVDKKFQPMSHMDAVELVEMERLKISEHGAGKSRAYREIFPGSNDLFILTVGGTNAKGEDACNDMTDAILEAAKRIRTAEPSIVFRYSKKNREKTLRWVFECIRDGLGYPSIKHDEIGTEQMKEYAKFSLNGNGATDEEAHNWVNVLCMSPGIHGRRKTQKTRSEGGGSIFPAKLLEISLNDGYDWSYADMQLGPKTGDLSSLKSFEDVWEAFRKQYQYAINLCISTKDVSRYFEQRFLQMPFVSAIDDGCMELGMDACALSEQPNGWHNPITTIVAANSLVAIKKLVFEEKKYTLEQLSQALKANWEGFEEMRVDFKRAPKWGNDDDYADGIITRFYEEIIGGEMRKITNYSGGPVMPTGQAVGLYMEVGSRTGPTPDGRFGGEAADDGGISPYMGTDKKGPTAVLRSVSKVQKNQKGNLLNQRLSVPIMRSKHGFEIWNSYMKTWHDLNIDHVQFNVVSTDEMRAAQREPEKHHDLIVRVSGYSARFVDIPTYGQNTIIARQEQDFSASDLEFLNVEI
T1 sequence (O68396 1-81 partner): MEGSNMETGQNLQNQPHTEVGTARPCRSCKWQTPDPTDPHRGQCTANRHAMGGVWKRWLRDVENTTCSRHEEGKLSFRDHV
T1 sequence (O68394 1-60 partner): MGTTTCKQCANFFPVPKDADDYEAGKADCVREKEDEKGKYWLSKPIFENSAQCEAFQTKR

For `Cc1ccccc1` [toluene], the “X-ray crystal structure, 2.9 Å” value was “In the active site, both toluene and fumarate were modeled and align well”.
